The test system of one series is MDA-MB-436. Description: Antiproliferative activity against human MDA-MB-436 cells overexpressing GLS1 assessed as inhibition of cell proliferation measured after 72 hrs by MTT assay. It counts as functional, cell-based. As to conditions: MDA-MB-436, 72 h. In general terms: Tetrazolium assays rely on reduction of a dye to a coloured formazan, in cell work by metabolically active cells.

The target of series [1] is T1, Glutaminase kidney isoform, mitochondrial (Homo sapiens, UniProt O94925).
T1 sequence (O94925 whole entry): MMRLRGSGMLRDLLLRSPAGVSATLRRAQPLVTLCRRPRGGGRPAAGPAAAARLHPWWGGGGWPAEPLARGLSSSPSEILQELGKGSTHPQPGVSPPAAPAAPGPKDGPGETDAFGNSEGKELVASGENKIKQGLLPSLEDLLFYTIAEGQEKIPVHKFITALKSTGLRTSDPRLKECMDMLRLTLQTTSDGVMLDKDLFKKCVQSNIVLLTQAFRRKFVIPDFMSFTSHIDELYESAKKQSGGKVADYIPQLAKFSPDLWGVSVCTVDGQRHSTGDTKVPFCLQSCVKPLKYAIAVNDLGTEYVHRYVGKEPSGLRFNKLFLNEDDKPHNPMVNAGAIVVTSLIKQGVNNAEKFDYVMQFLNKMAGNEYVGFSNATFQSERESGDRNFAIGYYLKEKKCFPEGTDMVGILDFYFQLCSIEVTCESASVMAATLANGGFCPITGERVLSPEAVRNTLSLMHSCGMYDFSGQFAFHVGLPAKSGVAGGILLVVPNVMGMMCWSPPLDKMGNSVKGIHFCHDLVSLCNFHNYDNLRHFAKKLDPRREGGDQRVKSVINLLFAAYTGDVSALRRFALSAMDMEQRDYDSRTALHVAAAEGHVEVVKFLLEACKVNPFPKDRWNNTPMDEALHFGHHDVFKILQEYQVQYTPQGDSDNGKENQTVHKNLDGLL
Description: Allosteric inhibition of human GLS1 using glutamine as substrate incubated for 60 mins by NADH/NADPH-based absorbance analysis.

For the next series, the system named is HCT-116. Description: Antiproliferative activity against human HCT-116 cells overexpressing GLS1 assessed as inhibition of cell proliferation measured after 72 hrs by MTT assay. Particulars: HCT-116, 72 h. The series is classed as functional, cell-based.
Series [2] is described as follows: Metabolic stability in human liver microsomes assessed as half life at 10 uM by LC-MS/MS analysis. It counts as ADME, Microsome. As to conditions: liver microsomes. Background: Liver microsomes are a subcellular fraction often used to study metabolism.
Series [3] is described as follows: Metabolic stability in human plasma assessed as parent compound remaining at 1 uM measured after 2 hrs by LC-MS/MS analysis. It counts as ADME, cell-free. Particulars: read-out: Stability.
Series [4] in a line: Metabolic stability in human liver microsomes assessed as intrinsic clearance at 10 uM by LC-MS/MS analysis. It counts as ADME, Microsome. As to conditions: read-out: CLH.

These results are taken from ChEMBL document CHEMBL5154870, “Discovery of novel glutaminase 1 allosteric inhibitor with 4-piperidinamine linker and aromatic heterocycles” (Eur J Med Chem, 2022).

One may read the IC50 as the point on the concentration scale where inhibition reaches its midpoint. The half-life is how long it takes for the measured level to halve.

`O=C(CCc1cn(Cc2ccc(OC(F)(F)F)cc2)nn1)Nc1ccc(N2CC[C@H](Nc3nnc(NC(=O)Cc4ccccn4)s3)C2)nn1`: the IC50 in the series on MDA-MB-436 is over 20000 nM; in series [1], over 1000 nM; in the series on HCT-116 it was over 20000 nM.

Consider `O=C(Cc1ccccc1)Nc1nnc(N[C@H]2CCN(c3nnc(NC(=O)CCc4cn(-c5ccc(C(F)(F)F)cc5)nn4)s3)C2)s1`, for which the IC50 in the series with MDA-MB-436 is over 20000 nM; in series [1], 216 nM; in the series on HCT-116, 15500 nM.

`COc1ccc(Cn2cc(CCC(=O)Nc3ccc(N4CCC(Nc5nnc(N)s5)CC4)nn3)nn2)cc1` showed an IC50 in series [1] of over 10000 nM.

For `COc1ccc(Cn2cc(CCC(=O)Nc3ccc(N4CCC(Nc5nnc(NC(=O)Cc6ccccn6)s5)CC4)nn3)nn2)cc1`, the IC50 in the series with MDA-MB-436 came out at 2040 nM; in series [1], 24.9 nM; in the series on HCT-116, 1450 nM.

For the compound `COc1ccc(Cn2cc(CCC(=O)Nc3nnc(N4CCC(Nc5nnc(NC(=O)Cc6ccccc6)s5)CC4)s3)nn2)cc1`, the IC50 in the series on MDA-MB-436 turned out to be 620 nM; in series [1] it was 14.7 nM; with HCT-116, 410 nM.

With `Cc1ccc(Cn2cc(CCC(=O)Nc3nnc(N4CCC(Nc5nnc(NC(=O)Cc6ccccc6)s5)CC4)s3)nn2)cc1`, the IC50 in the series on MDA-MB-436 was 420 nM; in series [1], 12.4 nM; with HCT-116 it was 350 nM.

On to `Cc1ccc(Cn2cc(CCC(=O)Nc3nnc(N4CC[C@H](Nc5nnc(NC(=O)Cc6ccccc6)s5)C4)s3)nn2)cc1`, for which the IC50 in the series on MDA-MB-436 is over 20000 nM; in series [1] it was 312 nM; in the series on HCT-116 it was 12500 nM.

`O=C(CCc1cn(Cc2ccc(C(F)(F)F)cc2)nn1)Nc1ccc(N2CC[C@H](Nc3nnc(NC(=O)Cc4ccccn4)s3)C2)nn1`: the results for the IC50 (with MDA-MB-436; in series [1]; with HCT-116) were over 20000 nM, over 1000 nM and over 20000 nM, respectively.

In series [1], `Cc1cccc(C)c1Cn1cc(CCC(=O)Nc2ccc(N3CCC(Nc4nnc(N)s4)CC3)nn2)nn1` gave an IC50 of over 10000 nM.

For the compound `Cc1cccc(C)c1Cn1cc(CCC(=O)Nc2ccc(N3CCC(Nc4nnc(NC(=O)Cc5ccccn5)s4)CC3)nn2)nn1`, the results for the IC50 (with MDA-MB-436; in series [1]; with HCT-116) were 6980 nM, 67.8 nM and 6090 nM, respectively.

As for `Cc1ccc(Cn2cc(CCC(=O)Nc3ccc(N4CC[C@@H](Nc5nnc(NC(=O)Cc6ccccn6)s5)C4)nn3)nn2)cc1`, the IC50 in the series with MDA-MB-436 was 840 nM; in series [1] it was 8.9 nM; in the series on HCT-116, 490 nM.

For `O=C(CCc1cn(Cc2ccc(OC(F)(F)F)cc2)nn1)Nc1ccc(N2CC[C@@H](Nc3nnc(NC(=O)Cc4ccccn4)s3)C2)nn1`, the figures for the IC50 (in the series with MDA-MB-436; in series [1]; with HCT-116) were 880 nM, 13.6 nM and 700 nM, respectively.

As to `O=C(Cc1ccccc1)Nc1nnc(NC2CCN(c3nnc(NC(=O)CCc4cn(Cc5ccc(C(F)(F)F)cc5)nn4)s3)CC2)s1`, the half-life at 10 µM in series [2] came out at 1.27 h. In addition, the IC50 with MDA-MB-436 was 510 nM; in series [1], 8.66 nM; in the series with HCT-116, 130 nM. For the same compound, the remaining at 2 h, 1 µM in series [3] came to 79%. Besides, the microsomal CLint at 10 µM in series [4] stood at 23.1 µL/min/mg.

For `O=C(Cc1ccccc1)Nc1nnc(N[C@@H]2CCN(c3nnc(NC(=O)CCc4cn(Cc5ccc(OC(F)(F)F)cc5)nn4)s3)C2)s1`, the IC50 in the series on MDA-MB-436 was determined as 1650 nM; in series [1] it was 16.7 nM; in the series on HCT-116, 580 nM.

Consider `Cc1ccc(Cn2cc(CCC(=O)Nc3ccc(N4CC[C@H](Nc5nnc(NC(=O)Cc6ccccn6)s5)C4)nn3)nn2)cc1`, for which the IC50 was over 20000 nM with MDA-MB-436, over 1000 nM in series [1] and over 20000 nM with HCT-116.

Consider `O=C(Cc1ccccc1)Nc1nnc(NC2CCN(c3nnc(NC(=O)CCc4cn(Cc5ccc(OC(F)(F)F)cc5)nn4)s3)CC2)s1`, for which the IC50 with MDA-MB-436 is 400 nM; in series [1] it was 17.1 nM; in the series on HCT-116, 190 nM.

With `COc1ccc(Cn2cc(CCC(=O)Nc3ccc(N4CCC(Nc5nnc(NC(=O)Cc6ccccn6)s5)CC4)nn3)nn2)cc1OC`, the IC50 in the series with MDA-MB-436 was 6720 nM; in series [1] it was 60.7 nM; in the series on HCT-116, 5750 nM.

For `Cc1cccc(C)c1Cn1cc(CCC(=O)Nc2nnc(N3CCC(Nc4nnc(NC(=O)Cc5ccccc5)s4)CC3)s2)nn1`, the IC50 worked out at 4580 nM with MDA-MB-436, 69.1 nM in series [1] and 3960 nM in the series on HCT-116.

Regarding `Cc1cccc(C)c1Cn1cc(CCC(=O)Nc2ccc(N3CC[C@@H](Nc4nnc(NC(=O)Cc5ccccn5)s4)C3)nn2)nn1`, the results for the IC50 (with MDA-MB-436; in series [1]; with HCT-116) were 4290 nM, 41.8 nM and 3640 nM, respectively.

`O=C(Cc1ccccc1)Nc1nnc(N[C@H]2CCN(c3nnc(NC(=O)CCc4cn(Cc5ccc(OC(F)(F)F)cc5)nn4)s3)C2)s1`: the IC50 with MDA-MB-436 was over 20000 nM; in series [1] it was 381 nM; in the series with HCT-116, 10100 nM.

Take `COc1ccc(Cn2cc(CCC(=O)Nc3nnc(N4CC[C@@H](Nc5nnc(NC(=O)Cc6ccccc6)s5)C4)s3)nn2)cc1`: the figures for the IC50 (in the series with MDA-MB-436; in series [1]; in the series on HCT-116) were 760 nM, 57 nM and 560 nM, respectively.

`Cc1ccc(Cn2cc(CCC(=O)Nc3ccc(N4CCC(Nc5nnc(N)s5)CC4)nn3)nn2)cc1` displayed an IC50 in series [1] of over 10000 nM.

For `O=C(CCc1cn(Cc2ccc(OC(F)(F)F)cc2)nn1)Nc1ccc(N2CCC(Nc3nnc(NC(=O)Cc4ccccn4)s3)CC2)nn1`, the IC50 is 1020 nM in the series with MDA-MB-436, 17.2 nM in series [1] and 1240 nM with HCT-116.

As for `O=C(CCc1cn(Cc2ccc(C(F)(F)F)cc2)nn1)Nc1ccc(N2CCC(Nc3nnc(NC(=O)Cc4ccccn4)s3)CC2)nn1`, the IC50 was 840 nM with MDA-MB-436, 18.3 nM in series [1] and 530 nM with HCT-116.

In the case of `Nc1nnc(NC2CCN(c3ccc(NC(=O)CCc4cn(Cc5ccc(OC(F)(F)F)cc5)nn4)nn3)CC2)s1`, in series [1], the IC50 is over 10000 nM.

Take `COc1ccc(Cn2cc(CCC(=O)Nc3ccc(N4CC[C@H](Nc5nnc(NC(=O)Cc6ccccn6)s5)C4)nn3)nn2)cc1`: the IC50 is over 20000 nM with MDA-MB-436, over 1000 nM in series [1] and over 20000 nM in the series on HCT-116.

In the case of `COc1ccc(Cn2cc(CCC(=O)Nc3nnc(N4CCC(Nc5nnc(NC(=O)Cc6ccccc6)s5)CC4)s3)nn2)cc1OC`, the IC50 was determined as 4210 nM with MDA-MB-436, 77.5 nM in series [1] and 3250 nM with HCT-116.

As to `COc1ccc(Cn2cc(CCC(=O)Nc3ccc(N4CCC(Nc5nnc(N)s5)CC4)nn3)nn2)cc1OC`, the IC50 in series [1] was over 10000 nM.

Turning to `COc1ccc(Cn2cc(CCC(=O)Nc3nnc(N4CC[C@H](Nc5nnc(NC(=O)Cc6ccccc6)s5)C4)s3)nn2)cc1`, the IC50 with MDA-MB-436 is over 20000 nM; in series [1], 544 nM; in the series on HCT-116, 14200 nM.

As to `COc1ccc(Cn2cc(CCC(=O)Nc3ccc(N4CC[C@@H](Nc5nnc(NC(=O)Cc6ccccn6)s5)C4)nn3)nn2)cc1`, the figures for the IC50 (with MDA-MB-436; in series [1]; with HCT-116) were 1540 nM, 11.3 nM and 680 nM, respectively.

For `O=C(Cc1ccccc1)Nc1nnc(N[C@H]2CCN(c3nnc(NC(=O)CCc4cn(Cc5ccc(C(F)(F)F)cc5)nn4)s3)C2)s1`, the IC50 with MDA-MB-436 is over 20000 nM; in series [1] it was 227 nM; with HCT-116, 8270 nM.

On to `Cc1ccc(Cn2cc(CCC(=O)Nc3nnc(N4CC[C@@H](Nc5nnc(NC(=O)Cc6ccccc6)s5)C4)s3)nn2)cc1`, for which the 50% inhibitory concentration (IC50) is 530 nM in the series with MDA-MB-436, 16.6 nM in series [1] and 350 nM in the series on HCT-116.

Turning to `O=C(CCc1cn(Cc2ccc(C(F)(F)F)cc2)nn1)Nc1ccc(N2CC[C@@H](Nc3nnc(NC(=O)Cc4ccccn4)s3)C2)nn1`, the IC50 was found to be 730 nM with MDA-MB-436, 10.3 nM in series [1] and 510 nM in the series on HCT-116.

As to `O=C(Cc1ccccc1)Nc1nnc(N[C@@H]2CCN(c3nnc(NC(=O)CCc4cn(Cc5ccc(C(F)(F)F)cc5)nn4)s3)C2)s1`, the IC50 was found to be 630 nM with MDA-MB-436, 12.4 nM in series [1] and 290 nM with HCT-116.

The compound `Nc1nnc(NC2CCN(c3ccc(NC(=O)CCc4cn(Cc5ccc(C(F)(F)F)cc5)nn4)nn3)CC2)s1` displayed an IC50 in series [1] of over 10000 nM.

As for `O=C(Cc1ccccc1)Nc1nnc(N[C@@H]2CCN(c3nnc(NC(=O)CCc4cn(-c5ccc(C(F)(F)F)cc5)nn4)s3)C2)s1`, the IC50 worked out at 2030 nM with MDA-MB-436, 17.9 nM in series [1] and 850 nM in the series on HCT-116.

For the compound `COc1ccc(Cn2cc(CCC(=O)Nc3ccc(N4CC[C@@H](Nc5nnc(NC(=O)Cc6ccccn6)s5)C4)nn3)nn2)cc1OC`, the values for the IC50 (in the series on MDA-MB-436; in series [1]; in the series on HCT-116) were 4480 nM, 35.7 nM and 3880 nM, respectively.

Consider `Cc1ccc(Cn2cc(CCC(=O)Nc3ccc(N4CCC(Nc5nnc(NC(=O)Cc6ccccn6)s5)CC4)nn3)nn2)cc1`, for which the IC50 stood at 470 nM in the series with MDA-MB-436, 20 nM in series [1] and 570 nM with HCT-116.
